In patent US4579861A, “Aryloxypropanolamine derivatives, pharmaceutical compositions and adrenegic thereof” (Pierrel S.p.A., priority 1983, dated 1986):
Where a name gives a salt, the structure may show the parent alone. Read-outs that look alike come from different tables or passages of the source.

What was measured:
β1 (guinea pig atria) = target: T1, β1 (guinea pig atria) (Cavia porcellus, UniProt H0W3H1); assay: In vitro β-blocking activity, guinea pig atria stimulated with isopropylnoradrenaline (INA); format: cell-based, guinea pig (Hartley albino); conditions: INA 10^-8 M, 32° C.
T1 construct: The atria and the trachea have been suspended respectively in Ringer oxygenated solution; from tissue; host or cells: isolated atria of Hartley albino guinea pigs
T1 sequence (H0W3H1 1-470): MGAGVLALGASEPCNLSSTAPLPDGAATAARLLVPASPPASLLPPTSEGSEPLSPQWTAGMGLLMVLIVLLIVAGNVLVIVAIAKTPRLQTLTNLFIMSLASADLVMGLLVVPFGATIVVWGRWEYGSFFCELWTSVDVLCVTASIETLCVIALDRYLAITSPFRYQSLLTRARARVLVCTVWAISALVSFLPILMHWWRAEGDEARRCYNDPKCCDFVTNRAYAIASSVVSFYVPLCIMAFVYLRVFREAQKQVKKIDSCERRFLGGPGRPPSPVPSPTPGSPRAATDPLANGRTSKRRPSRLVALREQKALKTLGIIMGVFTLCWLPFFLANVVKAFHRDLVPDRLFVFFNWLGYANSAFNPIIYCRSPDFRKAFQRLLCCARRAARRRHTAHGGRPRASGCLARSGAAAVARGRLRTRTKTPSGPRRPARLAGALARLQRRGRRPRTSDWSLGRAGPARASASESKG
Method: (§1) Hartley albino guinea pigs of 450 g average weight were used. The atria and the trachea have been suspended respectively in Ringer oxygenated solution at 32° C., and in Krebs carboxygenated solution medicated with pilocarpine, at 37° C.
(§2) After 30' minute stabilization the samples were stimulated with a single submaximal concentration of isopropylnoradrenaline (INA) (10^-8 M for the atria and 10^-7 M for the trachea) in the absence or presence of different antagonist's concentrations.
(§3) The percent inhibitions of the chronotropic and positive inotropic effect (atria) and of relaxation (trachea) were evaluated and the IC50 values were calculated therefrom.

β1 = assay: β-blocking activity on conscious rats, i.v. (inhibition of INA positive chronotropic effect); format: in vivo, rat (male Wistar); conditions: 2 rats each compound
Excerpt: The arterial pressure (AP) and heart rate (HR) were graphically recorded on a type R. multichannel Beckman poligraph.

in vivo = conditions: mouse, iv
Method: Charles River male CD1 mice, weighing 25 g were used. The administration volume of the compounds, solubilized in H2 O and exceptionally in dimethylsulfoxide, was 0.02 ml/10 g of body weight.

β2 (guinea pig trachea) = β2 (guinea pig trachea) (Cavia porcellus, UniProt Q8K4Z4); assay: cell-based; set-up: species or system guinea pig (Hartley albino)
Chain of β2 (guinea pig trachea) (Q8K4Z4 whole entry): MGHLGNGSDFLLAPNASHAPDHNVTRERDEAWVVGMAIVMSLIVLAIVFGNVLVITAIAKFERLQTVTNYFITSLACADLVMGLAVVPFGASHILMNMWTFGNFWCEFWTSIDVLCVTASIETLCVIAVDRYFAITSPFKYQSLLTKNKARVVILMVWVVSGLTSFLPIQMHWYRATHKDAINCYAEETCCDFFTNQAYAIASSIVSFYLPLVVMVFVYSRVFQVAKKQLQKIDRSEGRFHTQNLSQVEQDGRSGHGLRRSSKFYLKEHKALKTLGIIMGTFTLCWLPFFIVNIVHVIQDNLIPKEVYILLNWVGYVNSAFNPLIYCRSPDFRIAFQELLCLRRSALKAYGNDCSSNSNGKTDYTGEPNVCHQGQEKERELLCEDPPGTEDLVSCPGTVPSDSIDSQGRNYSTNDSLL
Method: as §1, §2, §3

β1 receptors = assay: Inhibition of 3H-DHA (dihydroalprenolol) binding to β1 receptors; conditions: for cardioselectivity degree compared with reference compounds: 3H-DHA binding, in words; for IC50: read-out: IC50 β1 (inhibition of H^3-DHA binding), [3H]dihydroalprenolol binding, β1
β2 receptors = assay: Inhibition of 3H-DHA (dihydroalprenolol) binding to β2 receptors; conditions: for affinity for the β2 receptors compared with β1 receptors: 3H-DHA binding, in words; for IC50: read-out: IC50 β2 (inhibition of H^3-DHA binding), [3H]dihydroalprenolol binding, β2
[1] = β-Blocking activity in vitro IC50, Atria chronotropism × 10^-7, guinea pig atria, β1, chronotropic effect
[2] = β-Blocking activity in vitro IC50, Atria inotropism × 10^-7, guinea pig atria, β1, positive inotropic effect
[3] = 3 mg/kg i.v. (Ia-c), could be undervalued by reflex tachycardia
[4] = guinea pig atria, β1, chronotropic effect, read-out: β-Blocking activity in vitro IC50, Atria chronotropism × 10^-7
[5] = guinea pig atria, β1, positive inotropic effect, read-out: β-Blocking activity in vitro IC50, Atria inotropism × 10^-7
[6] = guinea pig trachea, β2, relaxation, INA 10^-7 M, 37° C., pilocarpine, read-out: β-Blocking activity in vitro IC50, Trachea β2 × 10^-7
[7] = read-out: β-Blocking activity in vitro IC50, Trachea β2 × 10^-7
[8] = 1 mg/kg i.v., could be undervalued by reflex tachycardia

| SMILES | IC50 (β1 (guinea pig atria); [4]) [nM] | IC50 (β1 (guinea pig atria); [5]) [nM] | LD50 at 168 h (in vivo) [mg/kg] | IC50 (β2 (guinea pig trachea); [6]) [nM] | Vivo inhib. %, conscious rat i.v., chronotropism β1 (β1; [8]) [%] | other results |
| --- | --- | --- | --- | --- | --- | --- |
| CC(C)NCC(O)COc1ccc(CC(N)=O)cc1 (stereo not shown) [Atenolol, atenolol, reference compound] | – | – | – | – | – | IC50 (β1 (guinea pig atria); [1]): 1500 nM; IC50 (β1 (guinea pig atria); [2]): 1700 nM |
| O=C1CN(c2ccccc2)C(=O)N1CCNCC(O)COc1ccccc1 (stereo not shown) [Ia, 1-Phenyl-3-{[2-(3-phenoxy-2-hydroxy)propylamino]ethyl}hydantoin hydrochloride] | 140 | 430 | 96 | 6700 | – | Vivo inhib. %, conscious rat i.v., chronotropism β1 (β1; [3]): 59% |
| Cc1cccc(OCC(O)CNCCN2C(=O)CN(c3ccccc3)C2=O)c1 (stereo not shown) [Ib] | 430 | 940 | 69 | 6200 | – | Vivo inhib. %, conscious rat i.v., chronotropism β1 (β1; [3]): 50% |
| N#Cc1ccccc1OC[C@H](O)CNCCN1C(=O)CN(c2ccccc2)C1=O [Ic(R), (R)-(+)-1-Phenyl-3-{2-[3-(2-cyanophenoxy)-2-hydroxypropyl]aminoethyl}hydantoin hydrochloride] | 1400 | 3400 | – | – | – | IC50 (β2 (guinea pig trachea); [7]): > 100000 nM |
| N#Cc1ccccc1OC[C@@H](O)CNCCN1C(=O)CN(c2ccccc2)C1=O [Ic(S), (S)-(-)-1-Phenyl-3-{2-[3-(2-cyanophenoxy)-2-hydroxypropyl]aminoethyl}hydantoin hydrochloride] | 29 | 60 | – | – | – | IC50 (β2 (guinea pig trachea); [7]): 600 nM |
| N#Cc1ccccc1OCC(O)CNCCN1C(=O)CN(c2ccccc2)C1=O (stereo not shown) [Ic] | 120 | 90 | 99 | 2000 | – | cardioselectivity degree compared with reference compounds (β1 receptors): remarkably higher cardioselectivity degree than that of the reference compounds; IC50 (β1 receptors): 6.7 nM; Vivo inhib. %, conscious rat i.v., chronotropism β1 (β1; [3]): 67%; affinity for the β2 receptors compared with β1 receptors (β2 receptors): remarkably lower than the one shown for β1 receptors; IC50 (β2 receptors): 9300 nM |
| O=C1CN(c2ccc(Cl)cc2)C(=O)N1CCNCC(O)COc1ccccc1 (stereo not shown) [Id] | 770 | 1200 | 45 | > 10000 | 18 | – |
| Cc1cccc(OCC(O)CNCCN2C(=O)CN(c3ccc(Cl)cc3)C2=O)c1 (stereo not shown) [Ie] | > 10000 | > 10000 | 25 | > 10000 | 19 | – |
| N#Cc1ccccc1OCC(O)CNCCN1C(=O)CN(c2ccc(Cl)cc2)C1=O (stereo not shown) [If] | 210 | 270 | 70 | 6000 | 68 | – |
| COc1ccc(N2CC(=O)N(CCNCC(O)COc3ccccc3)C2=O)cc1OC (stereo not shown) [Ig] | 230 | 210 | 126 | 1500 | 53 | – |
| COc1ccc(N2CC(=O)N(CCNCC(O)COc3cccc(C)c3)C2=O)cc1OC (stereo not shown) [Ih] | 460 | 890 | 111 | 1100 | 58 | – |
| COc1ccc(N2CC(=O)N(CCNCC(O)COc3ccccc3C#N)C2=O)cc1OC (stereo not shown) [Ii] | 82 | 190 | 137 | 430 | 70 | cardioselectivity degree compared with reference compounds (β1 receptors): remarkably higher cardioselectivity degree than that of the reference compounds; IC50 (β1 receptors): 9.2 nM; affinity for the β2 receptors compared with β1 receptors (β2 receptors): remarkably lower than the one shown for β1 receptors; IC50 (β2 receptors): 400 nM |
| COc1ccc(N2CC(=O)N(CCNCC(O)COc3ccccc3C#N)C2=O)cc1.Cl (stereo not shown) [Il, 1-(4-Methoxyphenyl)-3-{2-[3-(2-cyanophenoxy)-2-hydroxypropyl]aminoethyl}hydantoin hydrochloride] | 45 | 96 | 135 | – | – | IC50 (β2 (guinea pig trachea); [7]): 360 nM |
| Cl.N#Cc1ccccc1OCC(O)CNCCN1C(=O)CN(c2ccc3c(c2)OCO3)C1=O (stereo not shown) [Im, 1-(3,4-Methylendioxyphenyl)-3-{2-[3-(2-cyanophenoxy)-2-hydroxypropyl]aminoethyl}hydantoin hydrochloride] | 41 | 63 | 132 | – | – | IC50 (β2 (guinea pig trachea); [7]): 780 nM |
| COc1cccc(N2CC(=O)N(CCNCC(O)COc3ccccc3C#N)C2=O)c1 (stereo not shown) [In, 1-(3-Methoxyphenyl)-3-{2-[3-(2-cyanophenoxy)-2-hydroxypropyl]-aminoethyl}hydantoin hydrochloride] | 76 | 130 | 120 | 640 | – | – |
| Cc1ccccc1OCC(O)CNCCN1C(=O)CN(c2ccccc2)C1=O (stereo not shown) [Io] | 115 | 150 | 60 | 1600 | – | – |
| O=C1CN(c2ccccc2)C(=O)N1CCNCC(O)COc1ccccc1Cl (stereo not shown) [Ip] | 54 | 115 | 80 | 600 | – | – |
| CC(CCc1ccccc1)NCC(O)c1ccc(O)c(C(N)=O)c1 (stereo not shown) [Labetalol, labetalol, reference compound] | – | – | – | – | 82 | IC50 (β1 (guinea pig atria); [1]): 240 nM; IC50 (β1 (guinea pig atria); [2]): 210 nM; IC50 (β2 (guinea pig trachea)): 1100 nM |
| COCCc1ccc(OCC(O)CNC(C)C)cc1 (stereo not shown) [Metoprolol, metoprolol, reference compound] | – | – | 103 | – | 60 | – |
| CC(C)NCC(O)COc1cccc2ccccc12 (stereo not shown) [Propranolol, propranolol, reference compound] | – | – | – | – | – | Vivo inhib. %, conscious rat i.v., chronotropism β1 (β1; 0.1 mg/kg i.v. (propranolol)): 73% |
